Test results reported in patent US20050107386A1, “Methods of treating diseases and disorders by targeting multiple kinases” (priority 2003, published 2005).

How the values were obtained:
Assay type in all cases: biochemical
[1] = test system: panel of 50 kinases; test: Panel of 50 kinases (Table 2), count of inhibited kinases; conditions: compared to a no-compound control; 3 μM
Experimental: (§1) Six compounds (presumptive single agents) were tested against a panel of 50 kinases. The results are presented in Table 2; numbers for each kinase indicate the percent of control kinase activity in the presence of a 3μM concentration of the indicated agent.
CC006 (5-(5-Cyclopentyl-1H-[1,2,4]triazol-3-yl)-3-(4-fluoro-phenyl)-1H-indazole) and CC007 (3-(5-(1H-1,2,4-triazol-3-yl)(1H-indazol-3-yl))phenyl-N-cyclopentylcarboxamide) were included as controls.

[2] = target: CDK7/cyclinH/MAT1 (Homo sapiens, UniProt P50613); test: CDK7/cyclinH/MAT1 kinase assay; conditions: 3 μM; percent of control kinase activity
Chain of CDK7/cyclinH/MAT1 (P50613 whole entry): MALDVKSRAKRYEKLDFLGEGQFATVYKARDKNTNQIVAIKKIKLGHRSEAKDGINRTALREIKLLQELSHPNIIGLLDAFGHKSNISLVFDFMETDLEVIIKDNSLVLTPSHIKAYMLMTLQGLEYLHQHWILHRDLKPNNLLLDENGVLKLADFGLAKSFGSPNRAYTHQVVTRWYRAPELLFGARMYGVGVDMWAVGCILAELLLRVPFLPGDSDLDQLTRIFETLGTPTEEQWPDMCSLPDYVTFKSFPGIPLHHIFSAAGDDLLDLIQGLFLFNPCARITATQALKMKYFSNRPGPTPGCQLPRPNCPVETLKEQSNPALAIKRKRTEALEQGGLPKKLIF
Chain of CDK7/cyclinH/MAT1 (P51946 whole entry partner): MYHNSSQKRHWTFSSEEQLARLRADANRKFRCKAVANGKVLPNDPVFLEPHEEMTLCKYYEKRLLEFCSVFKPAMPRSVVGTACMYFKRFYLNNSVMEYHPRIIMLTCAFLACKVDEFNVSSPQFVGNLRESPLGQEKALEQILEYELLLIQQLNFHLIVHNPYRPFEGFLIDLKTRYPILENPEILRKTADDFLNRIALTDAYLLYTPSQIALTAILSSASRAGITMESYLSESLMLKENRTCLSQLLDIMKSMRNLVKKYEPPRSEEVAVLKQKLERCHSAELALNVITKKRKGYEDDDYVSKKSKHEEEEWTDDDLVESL
Chain of CDK7/cyclinH/MAT1 (P51948 whole entry partner): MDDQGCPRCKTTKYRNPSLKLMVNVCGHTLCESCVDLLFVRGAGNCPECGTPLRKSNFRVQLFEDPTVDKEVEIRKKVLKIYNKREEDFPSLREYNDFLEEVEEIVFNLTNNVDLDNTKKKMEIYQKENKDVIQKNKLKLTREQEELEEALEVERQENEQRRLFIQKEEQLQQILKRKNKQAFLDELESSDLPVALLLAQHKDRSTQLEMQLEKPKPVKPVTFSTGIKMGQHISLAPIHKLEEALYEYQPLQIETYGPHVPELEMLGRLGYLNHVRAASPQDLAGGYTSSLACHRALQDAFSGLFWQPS
Experimental: as §1
(§2) Agents that target two or more different kinases are useful in the methods of the invention as described elsewhere herein. Such compounds may be identified, and their effect on certain kinases may be identified, using the assays briefly described below in Examples 4-83. Each of these assays was carried out as described in Davies et al., Biochem. J., 351:95-105 (2000). All assays were carried out at 10 μM ATP unless otherwise noted.
(§3) In a final reaction volume of 25 μl, CDK7/cyclinH/MAT1 (h) (5-10 mU) is incubated with 8 mM MOPS pH 7.0, 0.2 mM EDTA, 500 μM peptide, 10 mM MgAcetate and [γ-^33P-ATP] [specific activity approx. 500 cpm/pmol, concentration as required). The reaction is initiated by the addition of Mg^2+ [γ-33 P-ATP]. After incubation for 40 minutes at room temperature, the reaction is stopped by the addition of 5 μl of a 3% phosphoric acid solution. 10 μl of the reaction is then spotted onto a P30 filtermat and washed three times for 5 minutes in 75 mM phosphoric acid and once in methanol prior to drying and scintillation counting.

[3] = target: cSRC(h) (Homo sapiens, UniProt P12931); test: cSRC(h) kinase assay; conditions: for Inhibitory activity (% of control), cSRC(h): 3 μM, percent of control kinase activity
Chain of cSRC(h) (P12931 whole entry): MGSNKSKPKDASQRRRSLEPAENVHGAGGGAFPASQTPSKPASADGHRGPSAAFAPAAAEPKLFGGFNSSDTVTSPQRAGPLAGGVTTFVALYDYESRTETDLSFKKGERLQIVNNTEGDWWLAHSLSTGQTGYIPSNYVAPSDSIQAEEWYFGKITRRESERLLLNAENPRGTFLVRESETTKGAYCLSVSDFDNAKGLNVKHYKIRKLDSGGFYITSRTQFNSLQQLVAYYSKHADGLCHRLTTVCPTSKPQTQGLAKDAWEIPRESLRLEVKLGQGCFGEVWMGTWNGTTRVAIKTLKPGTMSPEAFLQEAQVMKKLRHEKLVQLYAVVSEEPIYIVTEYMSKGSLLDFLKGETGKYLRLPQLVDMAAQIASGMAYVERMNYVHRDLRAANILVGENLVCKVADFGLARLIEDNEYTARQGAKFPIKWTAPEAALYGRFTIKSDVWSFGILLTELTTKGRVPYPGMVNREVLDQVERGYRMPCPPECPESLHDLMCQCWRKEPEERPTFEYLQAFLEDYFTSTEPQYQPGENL
Experimental: as §1, §2
as §3, with “μl, cSRC” for “μl, CDK7/cyclinH/MAT1”, “EDTA, 250” for “EDTA, 500”, “μM […] (Cdc2 peptide; SEQ ID NO:7),” for “μM peptide,”, “[γ-^33P-ATP] (Specific” for “[γ-^33P-ATP] [specific”, “Mg^2+ [γ-^33P-ATP].” for “Mg^2+ [γ-33 P-ATP].”

[4] = target: GSK3β(h) (Homo sapiens, UniProt P49841); test: GSK3β(h) kinase assay; conditions: 3 μM; percent of control kinase activity
Chain of GSK3β(h) (P49841 whole entry): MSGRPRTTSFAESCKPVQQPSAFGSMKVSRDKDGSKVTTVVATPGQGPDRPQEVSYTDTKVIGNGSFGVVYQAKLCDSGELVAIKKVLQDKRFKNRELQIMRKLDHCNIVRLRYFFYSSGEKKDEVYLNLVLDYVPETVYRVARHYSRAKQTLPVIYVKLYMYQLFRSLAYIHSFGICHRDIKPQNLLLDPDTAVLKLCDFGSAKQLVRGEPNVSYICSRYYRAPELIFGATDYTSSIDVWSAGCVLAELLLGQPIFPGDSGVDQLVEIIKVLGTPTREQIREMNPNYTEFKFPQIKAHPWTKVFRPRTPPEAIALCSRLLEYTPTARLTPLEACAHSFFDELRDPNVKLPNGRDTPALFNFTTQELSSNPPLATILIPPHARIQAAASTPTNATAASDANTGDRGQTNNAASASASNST
Experimental: as §1, §2
as §3, with “μl, GSK3β” for “μl, CDK7/cyclinH/MAT1”, “EDTA, 20” for “EDTA, 500”, “μM […](p)EDEEE (phospho GS2 peptide; SEQ ID NO:3),” for “μM peptide,”, “[γ-^33P-ATP] (Specific” for “[γ-^33P-ATP] [specific”, “Mg^2+ [γ-^33P-ATP].” for “Mg^2+ [γ-33 P-ATP].”, “in 50” for “in 75”

[5] = target: IR(h) (Homo sapiens, UniProt P06213); test: IR(h) kinase assay; conditions: 3 μM; percent of control kinase activity
Chain of IR(h) (P06213 28-1382): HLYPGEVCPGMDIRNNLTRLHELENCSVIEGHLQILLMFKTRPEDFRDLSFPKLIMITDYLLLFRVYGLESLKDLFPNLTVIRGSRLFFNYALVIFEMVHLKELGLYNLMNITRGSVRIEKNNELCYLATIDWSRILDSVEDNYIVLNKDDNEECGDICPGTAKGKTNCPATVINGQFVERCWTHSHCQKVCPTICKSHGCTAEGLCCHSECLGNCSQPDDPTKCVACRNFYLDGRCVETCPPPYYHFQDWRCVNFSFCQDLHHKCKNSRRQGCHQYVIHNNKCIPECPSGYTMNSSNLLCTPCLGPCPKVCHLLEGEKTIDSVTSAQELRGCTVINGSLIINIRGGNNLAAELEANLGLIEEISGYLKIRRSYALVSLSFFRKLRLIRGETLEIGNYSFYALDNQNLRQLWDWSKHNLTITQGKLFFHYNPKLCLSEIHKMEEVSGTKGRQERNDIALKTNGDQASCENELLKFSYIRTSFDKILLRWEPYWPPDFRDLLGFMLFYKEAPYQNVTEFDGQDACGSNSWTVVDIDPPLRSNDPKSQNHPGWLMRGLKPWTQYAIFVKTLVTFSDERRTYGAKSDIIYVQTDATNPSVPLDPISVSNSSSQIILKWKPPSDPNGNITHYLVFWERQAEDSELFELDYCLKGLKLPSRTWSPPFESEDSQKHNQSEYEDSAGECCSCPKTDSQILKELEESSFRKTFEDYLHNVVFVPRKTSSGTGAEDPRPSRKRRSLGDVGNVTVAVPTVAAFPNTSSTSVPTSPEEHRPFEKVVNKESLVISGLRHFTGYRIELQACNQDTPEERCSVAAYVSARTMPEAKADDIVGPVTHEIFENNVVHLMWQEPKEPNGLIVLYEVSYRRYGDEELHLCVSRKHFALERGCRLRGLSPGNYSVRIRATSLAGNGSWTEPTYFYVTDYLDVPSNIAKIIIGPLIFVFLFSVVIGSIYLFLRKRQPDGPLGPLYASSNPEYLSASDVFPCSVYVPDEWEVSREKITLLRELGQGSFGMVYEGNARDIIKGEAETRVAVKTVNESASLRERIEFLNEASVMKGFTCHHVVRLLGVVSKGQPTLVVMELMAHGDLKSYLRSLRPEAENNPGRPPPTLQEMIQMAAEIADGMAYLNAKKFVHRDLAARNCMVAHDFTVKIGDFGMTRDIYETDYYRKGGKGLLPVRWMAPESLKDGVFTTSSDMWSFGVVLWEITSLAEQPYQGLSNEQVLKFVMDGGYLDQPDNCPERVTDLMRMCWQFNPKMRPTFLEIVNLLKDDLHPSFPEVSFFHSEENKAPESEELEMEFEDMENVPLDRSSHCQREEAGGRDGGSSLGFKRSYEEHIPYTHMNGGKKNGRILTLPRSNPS
Experimental: as §1, §2
In a final reaction volume of 25 μl, IR (h) (5-10 mU) is incubated with 50 mM Tris pH 7.5, 0.1 mM EGTA, 0.1 mM NaVanadate, 0.1% β-mercaptoethanol, 250 μM […] (SEQ ID NO: 15), 10 mM MnCl2, 10 mM MgAcetate and [γ-^33P-ATP] (Specific activity approx. 500 cpm/pmol, concentration as required). The reaction is initiated by the addition of Mg^2+ [γ-^33P-ATP]. After incubation for 40 minutes at room temperature, the reaction is stopped by the addition of 5 μl of a 3% phosphoric acid solution. 10 μl of the reaction is then spotted onto a P30 filtermat and washed three times for 5 minutes in 75 mM phosphoric acid and once in methanol prior to drying and scintillation counting.

[6] = target: T1, PKD2(h) (Homo sapiens, UniProt Q9BZL6); test: PKD2(h) kinase assay; conditions: 3 μM; percent of control kinase activity
T1 sequence (Q9BZL6 1-878): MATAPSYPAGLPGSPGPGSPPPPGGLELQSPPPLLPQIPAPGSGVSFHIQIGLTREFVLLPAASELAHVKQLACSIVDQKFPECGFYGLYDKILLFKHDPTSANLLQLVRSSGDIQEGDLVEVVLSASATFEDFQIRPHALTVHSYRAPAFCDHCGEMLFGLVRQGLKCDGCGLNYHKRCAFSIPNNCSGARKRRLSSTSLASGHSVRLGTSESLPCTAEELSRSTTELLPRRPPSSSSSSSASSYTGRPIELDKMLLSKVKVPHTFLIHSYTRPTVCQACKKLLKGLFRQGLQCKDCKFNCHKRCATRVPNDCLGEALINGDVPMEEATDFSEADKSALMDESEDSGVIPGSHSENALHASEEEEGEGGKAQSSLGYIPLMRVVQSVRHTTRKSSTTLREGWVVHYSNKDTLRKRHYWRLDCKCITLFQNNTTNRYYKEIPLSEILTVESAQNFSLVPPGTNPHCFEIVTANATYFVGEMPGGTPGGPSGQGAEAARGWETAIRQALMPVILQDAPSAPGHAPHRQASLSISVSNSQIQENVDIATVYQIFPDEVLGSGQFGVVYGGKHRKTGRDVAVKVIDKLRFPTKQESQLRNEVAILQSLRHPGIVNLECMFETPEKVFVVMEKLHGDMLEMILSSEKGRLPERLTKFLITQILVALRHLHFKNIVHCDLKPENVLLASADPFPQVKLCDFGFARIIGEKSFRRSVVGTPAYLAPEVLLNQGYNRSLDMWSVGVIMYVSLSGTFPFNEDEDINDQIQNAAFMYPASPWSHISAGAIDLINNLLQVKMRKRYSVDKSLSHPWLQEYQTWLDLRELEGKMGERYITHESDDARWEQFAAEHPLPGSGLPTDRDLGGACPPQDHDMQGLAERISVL
Experimental: as §1, §2

Row | Inhibitory activity (% of control), CDK7/cyclinH/MAT1 [2] | Inhibitory activity (% of control), cSRC(h) [3] | Inhibitory activity (% of control), GSK3β(h) [4] | Inhibitory activity (% of control), IR(h) [5] | Inhibitory activity (% of control), PKD2(h) [6] | inhibitory activity against cSrc, in words ([3]; summary of Table 2) | Structure (SMILES) | number of kinases listed in Table 2 whose activity is inhibited by more than 95% [1]
1 | – | – | – | – | – | – | CC(C)Cc1nc(-c2ccc3[nH]nc(-c4ccc5cc(OCCN6CCCC6)ccc5c4)c3c2)n[nH]1 [CC002, 5-(5-Isobutyl-1H-[1,2,4]Triazol-3-yl)-3-[6-(2-Pyrrolidin-1-yl-Ethoxy)-Naphthalen-2-yl]-1H-Indazole] | 29
2 | 7 % of control | 3 % of control | 34 % of control | 31 % of control | 0 % of control | – | CCN1CCC[C@H]1COc1ccc2cc(-c3n[nH]c4ccc(-c5nc(CC(C)(C)C)n[nH]5)cc34)ccc2c1 [CC005, 2-[((2s)-1-ethylpyrrolidin-2-yl)methoxy]-6-{5-[3-(2,2-Dimethylpropyl)(1H-1,2,4,-triazol-5-yl)](1H-indazol-3-yl)}naphthalene] | –
3 | 19 % of control | 67 % of control | 63 % of control | 89 % of control | 26 % of control | somewhat less inhibitory activity | CC(C)(C)Cc1nc(-c2ccc3[nH]nc(-c4ccc5cc(OCc6ccccn6)ccc5c4)c3c2)n[nH]1 [CC004, 5-[5-(2,2-Dimethyl-propyl)-1H-[1,2,4]triazol-3-yl]-3-[6-(pyridine-2-ylmethoxy)-naphthalen-2-yl]-1H-indazole] | 16

Row | Structure (SMILES) | Inhibitory activity (% of control), CDK7/cyclinH/MAT1 [2] | Inhibitory activity (% of control), cSRC(h) [3] | Inhibitory activity (% of control), GSK3β(h) [4] | Inhibitory activity (% of control), IR(h) [5] | Inhibitory activity (% of control), PKD2(h) [6] | inhibitory activity against cSrc, in words ([3]; summary of Table 2) | number of kinases listed in Table 2 whose activity is inhibited by more than 95% [1]
4 | COc1ccc2cc(-c3n[nH]c4ccc(-c5n[nH]c(CN6CCOCC6)n5)cc34)ccc2c1 [CC001, 3-(6-Methoxynaphthalen-2-yl)-5-(5-Morpholin-4-Ylmethyl-1H-[1,2,4]Triazol-3-yl)-1H-Indazole] | 13 % of control | 2 % of control | 12 % of control | 74 % of control | 14 % of control | – | 16
